Measurements reported in patent publication US20180318325A1, “ANTIBODIES FOR TARGETING CANCER STEM CELLS AND TREATING AGGRESSIVE CANCERS” (GlycoMimetics, Inc., priority 2015, published 2018).

What was measured:
MM1S^HECA452 [1] = test: survival of SCID beige mice transplanted with MM1S^HECA452 cells; type: in vivo; settings: MM1S^HECA452 engrafted female SCID beige mice; FIG. 4
Experimental: (§1) The significance of these in vitro findings were studied in vivo. Female SCID beige mice were injected i.v. with either MM1S^par or MM1S^HECA452 (5×10^5 cells, n=8/group) and followed for survival (see, e.g., FIG. 2). In separate cohorts, the effect of treatment with saline control, GMI-1271, bortezomib (BTZ) or a combination of both was determined in mice transplanted with either MM1S^par or MM1S^HECA452 cells.

MM cells = settings: murine transplant models; Natoni et al., Blood, 2014; cited from earlier work
MM1S^par = test: survival of SCID beige mice transplanted with MM1S^par cells; type: in vivo; settings: MM1S^par engrafted female SCID beige mice; FIG. 3
Experimental: as §1

E-selectin [2] = target: T1, E-selectin (Homo sapiens, UniProt P16581); test: rolling on E-selectin under shear stress; type: cell-based; settings: both HECA-452 enriched and parental MM cell lines
T1 sequence (P16581 22-610): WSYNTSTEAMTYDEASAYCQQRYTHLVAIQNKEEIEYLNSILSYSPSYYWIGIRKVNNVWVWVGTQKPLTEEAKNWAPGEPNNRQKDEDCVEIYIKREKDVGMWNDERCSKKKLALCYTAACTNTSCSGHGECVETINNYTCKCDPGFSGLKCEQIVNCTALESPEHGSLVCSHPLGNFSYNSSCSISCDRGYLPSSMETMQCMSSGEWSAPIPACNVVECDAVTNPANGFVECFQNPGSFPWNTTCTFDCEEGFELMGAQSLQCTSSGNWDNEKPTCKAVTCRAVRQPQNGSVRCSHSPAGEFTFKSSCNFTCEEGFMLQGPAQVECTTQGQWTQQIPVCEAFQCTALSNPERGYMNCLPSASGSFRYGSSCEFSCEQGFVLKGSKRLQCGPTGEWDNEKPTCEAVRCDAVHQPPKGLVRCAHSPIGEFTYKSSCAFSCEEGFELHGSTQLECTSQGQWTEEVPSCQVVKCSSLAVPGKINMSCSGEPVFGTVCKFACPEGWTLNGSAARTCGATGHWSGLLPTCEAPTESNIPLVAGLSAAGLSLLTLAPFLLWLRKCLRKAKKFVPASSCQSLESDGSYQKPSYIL
Description: (§2) The derived cell lines could be passaged in vitro and were stable for enriched E-selectin ligand expression identified by antibody HECA-452.

E-selectin [3] = target: T1, E-selectin; settings: MM1S cells that bind to HECA-452; previously reported; cited from earlier work
E-selectin [4] = target: T1, E-selectin; test: static adhesion assay on E-selectin; type: cell-based; settings: GMI-1271 included during culture conditions; MM1S^HECA452 cells
Description: as §2

MM1S^HECA452 [5] = test: mobilization of human CD138+ MM cells into the bloodstream of mice with MM1S^HECA452 tumors; type: in vivo
Experimental: The number of human CD138+ MM cells was mobilized into the bloodstream in mice with MM1S^HECA452 tumors within 60 min following a single injection of GMI-1271 (see, e.g., FIG. 5) and persisted for at least 24 hours (2.37% v. 0.03%, p<0.001). This effect was consistent with GMI-1271 disrupting the tumor microenvironment and mobilizing MM1S^HECA-452 cells from the BM niche into the peripheral blood.

[6] = following a single injection of GMI-1271

Row | SMILES | survival / anti-myeloma activity (MM1S^HECA452 [1]) | effect on activity of bortezomib in vivo (MM cells) | survival (MM1S^par) | rolling on E-selectin (E-selectin [2]) | rolling of MM1S cells on E-selectin (E-selectin [3]) | adhesion of MM1S^HECA452 to E-selectin (E-selectin [4]) | human CD138+ MM cells in the bloodstream (MM1S^HECA452 [5]; after a single injection of GMI-1271, 24 hours, v. 0.03%, p<0.001) | persistence of mobilization (MM1S^HECA452 [5]; [6]) | time to mobilization of CD138+ MM cells into the bloodstream (MM1S^HECA452 [5]; [6])
1 | CC(C)C[C@H](NC(=O)[C@H](Cc1ccccc1)NC(=O)c1cnccn1)B(O)O [BTZ, bortezomib] | marked resistance to BTZ treatment | – | – | – | – | – | – | – | –
2 | CC[C@H]1C[C@@H](C(=O)NCCNC(=O)CCOCCOCCOCCOCCOCCOCCOCCOCCOCCOCCOCCOC)C[C@@H](O[C@@H]2O[C@H](CO)[C@H](O)[C@H](O[C@@H](CC3CCCCC3)C(=O)[O-])[C@H]2NC(C)=O)[C@@H]1O[C@@H]1O[C@@H](C)[C@@H](O)[C@@H](O)[C@@H]1O.[Na+] [GMI-1271] | – | enhance the activity of bortezomib | no impact on survival | profoundly inhibited rolling | blocked the rolling | marked reduction in adhesion | 2.37% | at least 24 hours | ≤ 60 min
